The nature of data set [1]: DOX encapsulation in nanoemulsions with or without Lipo-HD, absorption spectra after dialysis (Example 1). The following applies: for loading: after dialysis; for retention inside nanoemulsions after dialysis: dialysis in 0.1M NaHCO3 for 12h. It is filed as physicochemical. On the procedure: The compound Lipo-HD was dissolved firstly into the oil Labrafac® at 10 wt%. Then 65 mg of surfactant Solutol was added to 35 mg of above solution. The mixture was homogenized under magnetic stirring at 90°C for 10 min up to complete homogenisation. Finally, nanoemulsions were generated with the addition of ultrapure (Milli-Q) water (230 mg). The size of nanoemulsions could be monitored by the variation of the ratio between oil (labrafac) and surfactant (solutol). For fluorescence studies, 0.5 wt% of a donor dye […] is added respectively to Labrafac® containing or not 10 wt% of Lipo-HD. Then the nanoemulsions were prepared as described above. […] was used for monitoring the encapsulation, release and stability of the nanoemulsion by looking on the intensity variation between […] and DOX. […] To those solutions, […] of DOX-HCl (30 mM) was added. The mixtures were vortexes for 12 h at 37 °C. The Scheme of synthesis is illustrated in figure 1. The resulting solutions were dialyzed in 500 mL of 0.1M NaHCO3 for 12h. Absorption spectra were recorded on a Cary® spectrophotometer (Varian) according to conventional measurement method.

For a further data set, the system named is 4T1. As to the kind of experiment: MTS cytotoxicity assay in cell culture. The following applies: 4T1 cells, 48h incubation, prodrugs loaded in nanoemulsion, free drugs without nanoemulsion. It is filed as cell-based, mouse. On the procedure:
(§1) The MTS assay is based on the reduction of the MTS tetrazolium compound by viable mammalian cells (here, by tumor cells) to generate a colored formazan dye that is soluble in cell culture media. The formazan dye is quantified by measuring the absorbance at 490-500 nm. […] After 24h, the medium was removed and replaced by drug-containing (LipoHD-DOX nanoemulsion or DOX alone) medium. After 48h, the medium was removed and replaced with MTS-containing medium (0,5 mg/ml). After 4h of incubation, the medium was removed, replaced with 100µl of DMSO (agitation, 20 min) and the absorbance was read at 570 nm.
On the technique in general: Tetrazolium assays rely on reduction of a dye to a coloured formazan, in cell work by metabolically active cells.

In another data set the test system is MDA-MB-231. As to the kind of experiment: MTS cytotoxicity assay in cell culture. It is filed as cell-based, Human. The following applies: MDA-MB-231 cells, 48h incubation, prodrugs loaded in nanoemulsion, free drugs without nanoemulsion. On the procedure:
as §1

The subject of a further data set is Jimt1. As to the kind of experiment: MTS cytotoxicity assay in cell culture. The following applies: Jimt1 cells, 48h incubation, prodrugs loaded in nanoemulsion, free drugs without nanoemulsion. It is filed as cell-based, Human. On the procedure: as §1
Data set [2] is described as follows: Size distribution of nanoemulsions by dynamic light scattering. The following applies: nanoemulsion with the compound at 5 wt% in Labrafac, Cremophore, reacted with doxorubicin (Example 2). It is filed as physicochemical. On the procedure:
The compound Lipo-HD was dissolved firstly into the oil Labrafac® at 10 wt%. Then 65 mg of surfactant Solutol was added to 35 mg of above solution. The mixture was homogenized under magnetic stirring at 90°C for 10 min up to complete homogenisation. Finally, nanoemulsions were generated with the addition of ultrapure (Milli-Q) water (230 mg). The size of nanoemulsions could be monitored by the variation of the ratio between oil (labrafac) and surfactant (solutol).
Size distributions were determined by dynamic light scattering using Zetasizer Nano ZSP (Malvern Instruments S.A).
(§2) Corresponding compounds of formula II'a were respectively dissolved first into the oil Labrafac® at 5 wt%. Then 45 mg of surfactant Cremophore ® was added to 55 mg of above solution. The mixture was homogenized under magnetic stirring at 40°C for 10 min up to complete homogenisation. Finally, nanoemulsions were generated with the addition of phosphate buffered saline (230 mg).

Data set [3] in a line: Doxorubicin loading of nanoemulsions containing compounds of formula II'a (Example 2). It is filed as physicochemical. The following applies: nanoemulsion with the compound at 5 wt% in Labrafac, Cremophore, reacted with doxorubicin at pH 4, 37°C, 24h, then dialysed 24h and centrifuged. On the procedure:
as §2
300 µl of the obtained nanoemulsion encapsulating the compound of formula II'a were diluted into 300 µl of 20 mM acetate buffer (pH=4), and then 50 µl of 30 mM solution of doxorubicin in DMSO was added. The mixture was reacted under shaking at 37°C during 24h.
After the reaction, the sample was dialysed for 24h at NaHCO3 buffer (0.1 M) at pH8 and then centrifugation at 6000 rpm for 1 minute was carried out.

Data set [4] in a line: Storage stability of nanoemulsions (absorption spectra, precipitation) after 4 days. It is filed as physicochemical. The following applies: for change of absorption spectra on storage: nanoemulsions of the compound reacted with DOX, after 4 days storage at 4°C. On the procedure: • Figure 1: Scheme of synthesis of DOX/Lipo-HD conjugate in situ inside lipid nanoemulsions. • Figure 2A: Absorption spectra of 100 timed diluted nanoemulsions containing reference dye F888 and with Lipo-HD alone (F888-Lipo-HD), of 100 timed diluted nanoemulsions with Lipo-HD after incubation with DOX (F888-Lipo-HD-DOX), and of nanoemulsions encapsulating F888-Lipo-HD-DOX and further dialysis (F888-Lipo-HD-DOX after dialysis). Reference dye F888 was encapsulated at 0.5 wt% of with respect to Labrafac oil. Lipo-HD was encapsulated at 10 wt%. • Figure 2B: Absorption spectra of 100 timed diluted nanoemulsions containing F888 but without Lipo-HD (F888), of 100 times diluted nanoemulsions containing F888 after incubation with DOX (F888-DOX), and of nanoemulsion encapsulating F888-DOX further dialysis (F888-DOX after dialysis). […] Reference dye F888 was encapsulated at 0.5 wt%. • Figure 4A: Fluorescence spectra of nanoemulsions encapsulating 0.5 wt% of donor dye F888 with 10 wt% of Lipo-HD (F888-Lipo-HD) or without Lipo-HD (F888). • Figure 4B: Fluorescence spectra of nanoemulsions with Lipo-HD incubated with DOX and then dialyzed (F888-Lipo-HD-DOX), of nanoemulsions without Lipo-HD incubated with DOX and then dialyzed (F888-DOX), and of nanoemulsions containing F888 alone (F888). […] All fluorescence spectra were corrected from the blank. • Figures 5A, 5B: Fluorescence spectra of F888-Lipo-HD-DOX nanoemulsions (5000-fold dilution) in the presence of blank nanoemulsions (50-fold dilution) at pH 7.4 (Fig. 5A) and 4.0 (Fig. 5B). […] All fluorescence spectra were corrected from the blank. • Figures 5C: Fluorescence intensity ratio donor/acceptor as a function of incubation time for pH 7.4 and 4.0 (Fig. 5C). • Figure 6A, 6B: Absorption spectra of four nanoemulsions containing respectively a compound of formula I'a, where R1 and R2 are butyl (C4)-alkyl chains, or octyl (C8)-alkyl chains, or octadecyl (C18)-alkyl chains, or R1 is a single C18 alkyl-chain, while R2 = H (C18 mono chain). […]

`COc1cccc2c1C(=O)c1c(O)c3c(c(O)c1C2=O)C[C@@](O)(C(=O)CO)C[C@@H]3O[C@H]1C[C@H](N)[C@H](O)[C@H](C)O1` [DOX, doxorubicin, reference compound] yielded a loading in data set [1] (DOX loading of nanoemulsion without Lipo-HD) of less than 0.06%. Also, in data set [1], the “retention inside nanoemulsions after dialysis” value was “leaked out”. The Cytotoxicity entry in the data set on 4T1, in the data set on MDA-MB-231 and in the data set with Jimt1 was “dose-dependent cytotoxicity” each time.
Regarding `CC(=O)O[C@H]1C(=O)[C@@]2(C)[C@H]([C@H](OC(=O)c3ccccc3)[C@]3(O)C[C@H](OC(=O)[C@H](O)[C@@H](NC(=O)c4ccccc4)c4ccccc4)C(C)=C1C3(C)C)[C@]1(OC(C)=O)CO[C@@H]1C[C@@H]2O` [paclitacel, paclitaxel, reference compound], the Cytotoxicity result in the data set with 4T1, with MDA-MB-231 and in the data set on Jimt1 was “slightly higher” each time.
Consider `CCCCCCCCCCCCCCCCCCNC(=O)CCC(=O)NN` [Lipo-HD-C18], for which, in data set [2], the PDI was found to be 0.132 and the “Size (nm)” value came out at 104nm. In addition, in data set [3], the “Encapsulation loading (%)” value was found to be 0.68% and the “loading efficiency (%)” value turned out to be 21%. For the same compound, in data set [4] (nanoemulsion of the compound reacted with DOX, 4 days after preparation), the precipitation of nanoemulsion result is reported as “signs of precipitation”. Moreover, in data set [4], the “change of absorption spectra on storage” value is on record as “strong loss of absorbance”.
As for `CCCCCCCCCCCCCCCCCCN(CCCCCCCCCCCCCCCCCC)C(=O)CCC(=O)NN` [Lipo-HD, 3-(hydrazinecarbonyl)-N,N-dioctadecylpropanamide], in data set [1] (DOX loading with respect to labrafac oil, nanoemulsion with 10 wt% Lipo-HD, calculated with extinction coefficient of DOX 12 200 M^-1cm^-1), the loading was 1.6 wt%. In data set [2], the PDI is given as 0.118 and the “Size (nm)” value is 99nm. Further, in data set [3], the “Encapsulation loading (%)” value was found to be 1.58% and the “loading efficiency (%)” value was 55%. For the same compound, the “change of absorption spectra on storage” value in data set [4] is recorded as “minimal changes”.
In the case of `CCCCCCCCCCCCCCCCCCN(CCCCCCCCCCCCCCCCCC)C(=O)CCC(=O)NN=C(CO)C1(O)Cc2c(O)c3c(c(O)c2C(OC2CC(N)C(O)C(C)O2)C1)C(=O)c1c(OC)cccc1C3=O` (stereo not shown) [Lipo-HD-DOX], the solubility in oil entry in data set [1] (conjugate formed in situ in nanoemulsion, compared with DOX alone) is recorded as “much better soluble in oil than DOX alone”. The “retention inside nanoemulsions after dialysis” value in data set [1] was “remain inside nanoemulsions after dialysis”. In addition, the Cytotoxicity entry is “similarly” in the data set with 4T1, “higher toxicity” in the data set with MDA-MB-231 and “higher toxicity” in the data set with Jimt1.
Turning to `CCCCCCCCCCCCCCCCCCN(CCCCCCCCCCCCCCCCCC)C(=O)CCC(=O)Nc1ccn([C@@H]2O[C@H](CO)[C@@H](O)C2(F)F)c(=O)n1` [Lipo-N-Gem], the Cytotoxicity result was “dose-dependent” in the data set with 4T1, “slightly more efficient” in the data set with MDA-MB-231 and “slightly more efficient” in the data set on Jimt1.

Source of the values: patent EP3679952A1, “NANOEMULSIONS ENCAPSULATING PRODRUGS” (Université de Strasbourg, priority 2019, dated 2020).
